# Measurements reported in patent US8143243B2, “Compounds for the treatment of hepatitis C” (Bristol-Myers Squibb Company, priority 2007, dated 2012).
# Where two headings read alike, the source gives them in different places.
# Assays:
# HCV NS5B = target: T1, HCV NS5B (Hepatitis C virus genotype 1b, UniProt Q9WMX2); experiment: HCV NS5B RdRp enzyme assay (standard / modified); assay type: biochemical
# T1 construct: The protein was expressed with an 18 amino acid C-terminal truncation to enhance the solubility; made in house; host or cells: E. coli BL21 (DE3)
# Outline: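 SPA detection of 3H-UTP (0.29 μM) incorporation by C-terminally truncated (18 aa) genotype 1b NS5B from E. coli, on polyA/biotin-oligo-dT12 at 30° C, pH 7.5 Hepes, 2% DMSO. Modified format: 14 nM enzyme, 0.2 nM template, 20 nM primer prebound to beads, 4 h; standard: 28 nM, 6 nM, 180 nM free primer, 60 min. Seven-point IC50 fit.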
# HCV replicon cells = experiment: HCV replicon FRET / luciferase assay; assay type: cell-based
# Outline: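 Percent activity is background-subtracted signal relative to untreated cell wells, with background taken from maximal protease-inhibitor wells. Cytotoxicity is Alamar blue fluorescence relative to controls. Replicon inhibition was read by NS3 FRET peptide cleavage (340/490 nm) or luciferase.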
# [1] = HCV RdRp genotype 1b enzyme, read-out: IC50
# [2] = Hepatitis C virus, HCV replicon cells, FRET or luciferase readout, read-out: EC50
# T1 sequence (Q9WMX2 2420-2992): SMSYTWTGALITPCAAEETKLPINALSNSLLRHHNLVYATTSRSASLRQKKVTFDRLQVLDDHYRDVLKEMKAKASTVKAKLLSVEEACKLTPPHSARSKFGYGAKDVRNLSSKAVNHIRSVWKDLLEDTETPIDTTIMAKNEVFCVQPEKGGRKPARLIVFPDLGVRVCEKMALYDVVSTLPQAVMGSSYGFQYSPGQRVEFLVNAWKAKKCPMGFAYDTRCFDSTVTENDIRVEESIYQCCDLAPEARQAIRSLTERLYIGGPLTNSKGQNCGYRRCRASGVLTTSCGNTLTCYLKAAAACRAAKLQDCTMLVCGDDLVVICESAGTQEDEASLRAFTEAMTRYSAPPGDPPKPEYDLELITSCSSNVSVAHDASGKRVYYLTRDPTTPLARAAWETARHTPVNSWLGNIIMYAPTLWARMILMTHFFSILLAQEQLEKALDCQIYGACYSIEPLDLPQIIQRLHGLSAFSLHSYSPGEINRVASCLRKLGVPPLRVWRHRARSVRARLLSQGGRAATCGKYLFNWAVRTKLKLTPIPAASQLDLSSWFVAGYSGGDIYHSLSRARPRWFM
compound,measurement,setting,value
COc1ccc2c(c1)C=C(c1c(C(=O)N3C[C@@H]4C[C@H]3CO4)cnn1C(C)C)Cn1c-2c(C2CCCCC2)c2ccc(C(=O)NS(=O)(=O)C(C)C)cc21,IC50,HCV NS5B; [1],1 to 500 nM
same,EC50,HCV replicon cells; [2],1 to 500 nM
COc1ccc2c(c1)C=C(c1c(C(=O)N3CC4CCC(C3)O4)c(C(F)(F)F)nn1C)Cn1c-2c(C2CCCCC2)c2ccc(C(=O)NS(=O)(=O)C(C)C)cc21,IC50,HCV NS5B; [1],1 to 500 nM
same,EC50,HCV replicon cells; [2],1 to 500 nM
CCn1nc(C)c(C(=O)N2C[C@@H](C)O[C@@H](C)C2)c1C1=Cc2cc(OC)ccc2-c2c(C3CCCCC3)c3ccc(C(=O)NS(=O)(=O)C(C)C)cc3n2C1 [drawing 627],IC50,HCV NS5B; [1],1 to 500 nM
same,EC50,"HCV replicon cells; HCV replicon cells, FRET or luciferase readout, read-out: EC50",1 to 500 nM
COc1ccc2c(c1)C=C(c1c(C(=O)N(C)CCN(C)C)cnn1C)Cn1c-2c(C2CCCCC2)c2ccc(C(=O)NS(=O)(=O)N3CCOCC3)cc21,IC50,HCV NS5B; [1],1 to 500 nM
same,EC50,HCV replicon cells; [2],1 to 500 nM
CCn1nc(C)c(C(=O)N2CC3CCC(C2)O3)c1C1=Cc2cc(OC)ccc2-c2c(C3CCCCC3)c3ccc(C(=O)NS(=O)(=O)C(C)C)cc3n2C1,IC50,HCV NS5B; [1],1 to 500 nM
same,EC50,HCV replicon cells; [2],1 to 500 nM
COc1ccc2c(c1)C=C(c1c(C(=O)N3CCN4CCCC4C3)cnn1C)Cn1c-2c(C2CCCCC2)c2ccc(C(=O)NS(=O)(=O)N3CCOCC3)cc21 (stereo not drawn),IC50,HCV NS5B; [1],1 to 500 nM
same,EC50,HCV replicon cells; [2],1 to 500 nM
CCn1ncc(C(=O)N2CCN(C)CC2)c1C1=Cc2cc(OC)ccc2-c2c(C3CCCCC3)c3ccc(C(=O)NS(=O)(=O)N(C)C)cc3n2C1,IC50,HCV NS5B; [1],1 to 500 nM
same,EC50,HCV replicon cells; [2],1 to 500 nM
COc1ccc2c(c1)C=C(c1c(C(=O)N3C4COCC3COC4)cnn1C(C)C)Cn1c-2c(C2CCCCC2)c2ccc(C(=O)NS(=O)(=O)CC(C)C)cc21,IC50,HCV NS5B,1 to 500 nM
same,EC50,HCV replicon cells; Hepatitis C virus,1 to 500 nM
COc1ccc2c(c1)C=C(c1c(C(=O)N3CCCN(C)CC3)cnn1C)Cn1c-2c(C2CCCCC2)c2ccc(C(=O)NS(=O)(=O)N3CCOCC3)cc21,IC50,HCV NS5B; [1],< 20 nM
same,EC50,HCV replicon cells; [2],1 to 500 nM
COc1ccc2c(c1)C=C(c1c(C(=O)N(C)C)cnn1C)Cn1c-2c(C2CCCCC2)c2ccc(C(=O)NS(=O)(=O)C(C)C)cc21,IC50,HCV NS5B; [1],1 to 500 nM
same,EC50,HCV replicon cells; [2],1 to 500 nM
COc1ccc2c(c1)C=C(c1c(C(=O)N3C4CCC3CN(C)C4)c(C(F)(F)F)nn1C)Cn1c-2c(C2CCCCC2)c2ccc(C(=O)NS(=O)(=O)C(C)C)cc21,IC50,HCV NS5B,1 to 500 nM
same,EC50,HCV replicon cells; Hepatitis C virus,1 to 500 nM
COc1ccc2c(c1)C=C(c1c(C(=O)N3CCC(N(C)C)C3)cnn1C)Cn1c-2c(C2CCCCC2)c2ccc(C(=O)NS(=O)(=O)C(C)C)cc21 (stereo not drawn),IC50,HCV NS5B; [1],1 to 500 nM
same,EC50,HCV replicon cells; [2],1 to 500 nM
CCn1ncc(C(=O)N2C[C@@H]3C[C@H]2CO3)c1C1=Cc2cc(OC)ccc2-c2c(C3CCCCC3)c3ccc(C(=O)NS(=O)(=O)C(C)C)cc3n2C1,IC50,HCV NS5B; [1],1 to 500 nM
same,EC50,HCV replicon cells; [2],1 to 500 nM
CCC(C)S(=O)(=O)NC(=O)c1ccc2c(C3CCCCC3)c3n(c2c1)CC(c1c(C(=O)N2C[C@@H](C)O[C@@H](C)C2)cnn1C)=Cc1cc(OC)ccc1-3 (stereo partly drawn),IC50,HCV NS5B; [1],1 to 500 nM
same,EC50,HCV replicon cells; [2],1 to 500 nM
CCCN1CCN(C(=O)c2ccn(C(C)C)c2C2=Cc3cc(OC)ccc3-c3c(C4CCCCC4)c4ccc(C(=O)NS(=O)(=O)C(C)C)cc4n3C2)CC1,IC50,HCV NS5B; [1],1 to 500 nM
same,EC50,HCV replicon cells; [2],1 to 500 nM
COc1ccc2c(c1)C=C(c1c(C(=O)N3C[C@@H](C)O[C@@H](C)C3)c(C)nn1C)Cn1c-2c(C2CCCCC2)c2ccc(C(=O)NS(=O)(=O)C(C)C)cc21,IC50,HCV NS5B; [1],1 to 500 nM
same,EC50,HCV replicon cells; [2],1 to 500 nM
COc1ccc2c(c1)C=C(c1c(C(=O)N3CCOCC3)cnn1C)Cn1c-2c(C2CCCCC2)c2ccc(C(=O)O)cc21,IC50,HCV NS5B; [1],1 to 500 nM
same,EC50,HCV replicon cells; [2],1 to 500 nM
COc1ccc2c(c1)C=C(c1c(C(=O)N3CCOCC3)cnn1C)Cn1c-2c(C2CCCCC2)c2ccc(C(=O)NS(=O)(=O)N3CCOCC3)cc21,IC50,HCV NS5B; [1],< 20 nM
same,EC50,HCV replicon cells; [2],1 to 500 nM
COc1ccc2c(c1)C=C(c1c(C(=O)N3CCOCC3)cnn1C)Cn1c-2c(C2CCCCC2)c2ccc(C(=O)NS(=O)(=O)C3CCC3)cc21,IC50,HCV NS5B; [1],1 to 500 nM
same,EC50,HCV replicon cells; [2],1 to 500 nM
COc1ccc2c(c1)C=C(c1c(C(=O)N3CCOCC3)cnn1C)Cn1c-2c(C2CCCCC2)c2ccc(C(=O)NS(=O)(=O)N(C)C)cc21,IC50,HCV NS5B; [1],1 to 500 nM
same,EC50,HCV replicon cells; [2],1 to 500 nM
COc1ccc2c(c1)C=C(c1c(C(=O)N3CCN(C(C)C)CC3)cnn1C)Cn1c-2c(C2CCCCC2)c2ccc(C(=O)NS(=O)(=O)N3CCOCC3)cc21,IC50,HCV NS5B; [1],1 to 500 nM
same,EC50,HCV replicon cells; [2],1 to 500 nM
COC[C@@H]1CN(C(=O)c2cnn(C)c2C2=Cc3cc(OC)ccc3-c3c(C4CCCCC4)c4ccc(C(=O)NS(=O)(=O)CC(C)C)cc4n3C2)CCO1,IC50,HCV NS5B; [1],1 to 500 nM
same,EC50,HCV replicon cells; [2],1 to 500 nM
CCC(C)S(=O)(=O)NC(=O)c1ccc2c(C3CCCCC3)c3n(c2c1)CC(c1c(C(=O)N2CCOC(COC)C2)cnn1C)=Cc1cc(OC)ccc1-3 (stereo not drawn),IC50,HCV NS5B; [1],1 to 500 nM
same,EC50,HCV replicon cells; [2],1 to 500 nM
COc1ccc2c(c1)C=C(c1c(C(=O)N3[C@@H]4CC[C@H]3C[C@@](C)(O)C4)cnn1C(C)C)Cn1c-2c(C2CCCCC2)c2ccc(C(=O)NS(=O)(=O)CC(C)C)cc21,IC50,HCV NS5B,1 to 500 nM
same,EC50,HCV replicon cells; Hepatitis C virus,1 to 500 nM
COc1ccc2c(c1)C=C(c1c(C(=O)N3C4CCC3CN(C)C4)cnn1C(C)C)Cn1c-2c(C2CCCCC2)c2ccc(C(=O)NS(=O)(=O)C(C)C)cc21,IC50,HCV NS5B,1 to 500 nM
same,EC50,HCV replicon cells; Hepatitis C virus,1 to 500 nM
COc1ccc2c(c1)C=C(c1c(C(=O)N3C[C@@H](C)N(C)[C@@H](C)C3)c(C)nn1C(C)C)Cn1c-2c(C2CCCCC2)c2ccc(C(=O)NS(=O)(=O)C(C)C)cc21,IC50,HCV NS5B; [1],1 to 500 nM
same,EC50,HCV replicon cells; [2],1 to 500 nM
COc1ccc2c(c1)C=C(c1c(C(=O)O)cnn1C)Cn1c-2c(C2CCCCC2)c2ccc(C(=O)O)cc21,IC50,HCV NS5B; [1],1 to 500 nM
same,EC50,HCV replicon cells; [2],> 40 nM
COc1ccc2c(c1)C=C(c1c(C(=O)N3CCOCC3)cnn1C1CC1)Cn1c-2c(C2CCCCC2)c2ccc(C(=O)NS(=O)(=O)C(C)C)cc21,IC50,HCV NS5B; [1],1 to 500 nM
same,EC50,HCV replicon cells; [2],1 to 500 nM
CCOC(=O)c1cc[nH]c1C1=Cc2cc(OC)ccc2-c2c(C3CCCCC3)c3ccc(C(=O)NS(=O)(=O)C(C)C)cc3n2C1,IC50,HCV NS5B; [1],1 to 500 nM
same,EC50,HCV replicon cells; [2],1 to 500 nM
COc1ccc2c(c1)C=C(c1c(C(=O)N3C4COCC3COC4)cnn1C)Cn1c-2c(C2CCCCC2)c2ccc(C(=O)NS(=O)(=O)CC(C)C)cc21,IC50,HCV NS5B,1 to 500 nM
same,EC50,HCV replicon cells; Hepatitis C virus,1 to 500 nM
CCC(C)S(=O)(=O)NC(=O)c1ccc2c(C3CCCCC3)c3n(c2c1)CC(c1c(C(=O)N2C4CCC2CN(C)C4)cnn1C)=Cc1cc(OC)ccc1-3 (stereo not drawn),IC50,HCV NS5B,1 to 500 nM
same,EC50,HCV replicon cells; Hepatitis C virus,1 to 500 nM
COc1ccc2c(c1)C=C(c1c(C(=O)N3C[C@@H](C)O[C@@H](C)C3)cnn1CC(F)(F)F)Cn1c-2c(C2CCCCC2)c2ccc(C(=O)NS(=O)(=O)C(C)C)cc21,IC50,HCV NS5B; [1],1 to 500 nM
same,EC50,HCV replicon cells; [2],1 to 500 nM
CCC(C)S(=O)(=O)NC(=O)c1ccc2c(C3CCCCC3)c3n(c2c1)CC(c1c(C(=O)N2C4COCC2COC4)cnn1C)=Cc1cc(OC)ccc1-3 (stereo not drawn),IC50,HCV NS5B,1 to 500 nM
same,EC50,HCV replicon cells; Hepatitis C virus,1 to 500 nM
CCN1C[C@@H]2C[C@H]1CN2C(=O)c1cnn(C)c1C1=Cc2cc(OC)ccc2-c2c(C3CCCCC3)c3ccc(C(=O)NS(=O)(=O)N4CCOCC4)cc3n2C1,IC50,HCV NS5B; [1],1 to 500 nM
same,EC50,HCV replicon cells; [2],1 to 500 nM
COc1ccc2c(c1)C=C(c1ocnc1C(=O)N1CCOCC1)Cn1c-2c(C2CCCCC2)c2ccc(C(=O)NS(=O)(=O)N3CCOCC3)cc21,IC50,HCV NS5B; [1],1 to 500 nM
same,EC50,HCV replicon cells; [2],1 to 500 nM
COc1ccc2c(c1)C=C(c1c(C(=O)N3C[C@@H](C)O[C@@H](C)C3)cnn1C)Cn1c-2c(C2CCCCC2)c2ccc(C(=O)NS(=O)(=O)N3CCOCC3)cc21,IC50,HCV NS5B; [1],1 to 500 nM
same,EC50,HCV replicon cells; [2],1 to 500 nM
COc1ccc2c(c1)C=C(c1c(C(=O)N3CCN(C)CC3)cnn1C)Cn1c-2c(C2CCCCC2)c2ccc(C(=O)NS(=O)(=O)C(C)C)cc21,IC50,HCV NS5B; [1],1 to 500 nM
same,EC50,HCV replicon cells; [2],1 to 500 nM
CCOC(=O)N1CCN(C(=O)c2cnn(C)c2C2=Cc3cc(OC)ccc3-c3c(C4CCCCC4)c4ccc(C(=O)NS(=O)(=O)N5CCOCC5)cc4n3C2)CC1,IC50,HCV NS5B; [1],1 to 500 nM
same,EC50,HCV replicon cells; [2],1 to 500 nM
COc1ccc2c(c1)C=C(c1c(C(=O)N3C[C@@H](C)O[C@@H](C)C3)c(C(F)(F)F)nn1C)Cn1c-2c(C2CCCCC2)c2ccc(C(=O)NS(=O)(=O)C(C)C)cc21,IC50,HCV NS5B; [1],< 20 nM
same,EC50,HCV replicon cells; [2],1 to 500 nM
CCN1C[C@H]2C[C@@H]1CN2C(=O)c1cnn(C(C)C)c1C1=Cc2cc(OC)ccc2-c2c(C3CCCCC3)c3ccc(C(=O)NS(=O)(=O)CC(C)C)cc3n2C1,IC50,HCV NS5B; [1],1 to 500 nM
same,EC50,HCV replicon cells; [2],1 to 500 nM
COc1ccc2c(c1)C=C(c1c(C(=O)N3CCOCC3)cnn1CC(F)(F)F)Cn1c-2c(C2CCCCC2)c2ccc(C(=O)NS(=O)(=O)C(C)C)cc21,IC50,HCV NS5B; [1],1 to 500 nM
same,EC50,HCV replicon cells; [2],1 to 500 nM
COc1ccc2c(c1)C=C(c1c(C(=O)N3C[C@H]4CC[C@@H](C3)N4C)cnn1C)Cn1c-2c(C2CCCCC2)c2ccc(C(=O)NS(=O)(=O)N3CCOCC3)cc21,IC50,HCV NS5B,1 to 500 nM
same,EC50,HCV replicon cells; Hepatitis C virus,1 to 500 nM
